Measured values taken from patent US5229364A, “Polypeptides derived from the human immunodeficiency virus endonuclease protein” (priority 1991, dated 1993).

Experiments:
[1] = system: HIV-1 antibody positive sera; experiment: Peptide ELISA with HIV-1 antibody positive sera; type: binding, human; conditions: 33 HIV-1 antibody positive sera diluted 1/100; peptide 1 μg/well; absorbance 490 nm; positive = above mean of negative sera plus three S.D.
Protocol: FIG. 1 illustrates the reactivity of sera from HIV-1 infected and non-infected individuals to selected HIV-1 endonuclease peptides. Thirty-three HIV-1 antibody positive sera (filled symbols) and fourteen control sera (open symbols) were analyzed in ELISA with peptides representing the HIV-1 endonuclease protein (6). Amino acid sequences were derived from the HIV-1 consensus sequence and are shown at the bottom of the picture (abscissa). Uppercase letters indicate consensus amino acids, whereas less conserved amino acids are indicated with lowercase letters. Absorbance values at 490 nm are indicated in the ordinate. Three of the sera belonged to infected individuals classified as CDC 1 (7), thirteen to CDCII, seven to CDC III and ten to CDC IV. Becaused reactivity to other regions than the one represented by End 10 was very low, only results of a selected number of peptides is shown in the figure. FIG. 2 illustrates the reactivity of HIV-1 antobidy positive and control sera to an End 10 set of 18 glycine (G) substitution peptides. Filled symbols show mean optical density for 13 antibody positive sera. The corresponding values for four negative sera are shown by open symbols. Vertical bars represent standard deviation values. The mean reactivity to intact peptide End 10 was chosen to represent 100% of activity and reactivity to the substituted peptides is expressed in relation to this. […]

[2] = system: sera obtained from HIV-2 infected individuals; experiment: Peptide ELISA with sera from HIV-2 infected individuals; type: binding, human; conditions: data not shown
Protocol: The peptide ELISA was performed as follows. Microtiter plate wells (Linbro, Flow, Scotland) were coated with peptide (1 μg/well) resuspended in 0.01 M carbonate buffer at room temperature overnight. Thereafter, the plates wells were blocked with 5% bovine serum albumin. 100 μl of reagents were used per well. Five washings (0.9% NaCl and 0.005% Tween 20 in distilled water) were performed between the different steps of the ELISA procedure. Positive sera and controls were diluted 1/100 and incubated in the plates for one hour at 37° C. Peroxidase conjugated immunoglobulins to human IgG y-chains (Dakopatts; Denmark) diluted 1/2000 were added (1 hour, 37° C.). 1,2 phenylene diaminedihydrochloride was used as substrate. The reaction was allowed to continue for ten minutes and then stopped with 3 M H2 SO4. […] The mean optic density plus three times S.D. for peptide End 10 was 0.8.
The corresponding region in the genome of HIV-2 (Table 1) and simian immunodeficiency virus (SIV) is also very conserved. […] Some amino-acid stretches are, however, completely conserved among the different serotypes. Because of this observation, the HIV-1 peptide End 10 was also tested with 30 sera obtained from HIV-2 infected individuals.

ETGQETAYFLLKLAGRWPVK [End 10, 20-residue peptide of HIV-1 endonuclease, starting at position 655 of the pol consensus]
reactivity in ELISA with HIV-1 antibody positive sera [1]: reacted strongly | intensity of the reactions with HIV-2 sera relative to HIV-1 sera ([2]; 30 HIV-2 sera): comparable | reactivity in ELISA with HIV-2 sera ([2]; 30 sera from HIV-2 infected individuals): reacted strongly
